In EP0801071A1, “LEWIS X DERIVATIVE AND PROCESS FOR PRODUCING THE SAME” (SUMITOMO PHARMACEUTICALS COMPANY, LIMITED, priority 1994, dated 1996):

target: T1, rsE-selectin (Homo sapiens, UniProt P16581); experiment: Inhibition of adhesion of HL-60 cells to plate-coated rsE-selectin (Experiment 2); type: cell-based; details: 50% inhibition concentration of adhesion of rsE-selectin to HL-60, from inhibition curves; medium-only well = 100%
T1 sequence (P16581 22-556 limits assumed): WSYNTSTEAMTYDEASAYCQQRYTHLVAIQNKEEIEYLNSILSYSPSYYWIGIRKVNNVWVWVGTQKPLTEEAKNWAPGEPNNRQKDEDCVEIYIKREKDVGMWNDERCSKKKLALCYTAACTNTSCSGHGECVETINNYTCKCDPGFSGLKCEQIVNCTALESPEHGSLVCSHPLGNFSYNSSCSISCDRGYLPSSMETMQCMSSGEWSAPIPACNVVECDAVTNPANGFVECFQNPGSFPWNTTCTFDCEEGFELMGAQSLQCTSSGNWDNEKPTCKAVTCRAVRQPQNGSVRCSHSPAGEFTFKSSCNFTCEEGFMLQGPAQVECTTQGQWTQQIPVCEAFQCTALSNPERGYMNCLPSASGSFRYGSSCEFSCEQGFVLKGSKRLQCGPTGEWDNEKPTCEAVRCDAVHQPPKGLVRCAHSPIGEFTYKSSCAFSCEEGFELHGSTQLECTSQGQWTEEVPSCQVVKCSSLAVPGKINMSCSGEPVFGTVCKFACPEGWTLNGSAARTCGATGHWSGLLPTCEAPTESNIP
Description: The DPBS solution containing rsE-selectin (3 µg/ml) was added to a 96 well plate at 50 µl/well, while wells filled with DPBS without rsE-selectin (non-specific adhesion control) were prepared on the same plate, and the plate was kept at room temperature for 3 hours. Then wells were washed 3 times with a DPBS/BSA solution at 200 µl/well, and DPBS/BSA solution was added at 200 µl/well, and the plate was kept at room temperature for 1 hour. After removing DPBS/BSA solution, a medium containing NWB or NWB plus a compound of the invention was added at 40 µl/well.
Frozen HL-60 cells were thawed promptly at 37°C, and washed with NWB cooled to 4°C 3 times by centrifugation at 1500rpm × 5 min. The cells were adjusted with NWB to 1×10^7 cells/ml, added to the plate at 20 µl/well, and the plate was kept at room temperature for 15 min.
The plate was set on a plate washer to remove nonadhesive HL-60 cells. The plate washer was set at slow mode, cycle 3 (washing 3 times), soak 0 sec., 12 rows (along vertical direction), and volume of NWB for 1 washing 200 µl/well at room temperature.
A citrate solution containing 0.1% NP-40 at room temperature was added at 50 µl/well, and the plate was kept at room temperature for 5 minutes. The substrate solution (4 mg OPDA, 4µl 30% H2O2/4 ml citrate) was added at 50 µl/well, protected from light with aluminum foil, allowed to develop color for 5 to 20 minutes, and the reaction was terminated by adding 4N-H2SO4 at 50µl/well. The substrate solution was used within 30 minutes after preparation.
The OD490 of each well was determined, and the OD490 value of the well for nonspecific adhesion was subtracted from the value of each well. The value found in a well containing only the medium was used as a control (100%) and the amount of adhesion in wells containing Compounds (15), (31), (33)-(40) or (41) of the invention was calculated by percent in terms of the values of the control. By drawing inhibition curves, 50% inhibition concentration (IC50) was determined.
The materials for the experiment were obtained from the following sources. rsE-selectin: producible by the method described in J. C. Poulson, J. Am. Chem. Soc., 117: 66-79 (1995). The sample of rsE-selectin used in the experiments was kindly supplied by the author. HL-60 : ATCC Corp. DPBS (Dulbecco Phosphate Buffered Saline) : GIBCO Corp. BSA (Bovine Serum Albumin) : Sigma Corp. HBSS (Hanks Balanced Salt Solution) : GIBCO Corp. OPDA (Ortho-phenylenediamine) : Sigma Corp. RPMI 1640 medium : GIBCO Corp. Bovine Fetal Serum : GIBCO Corp. Plate : Immulon. 2. (flat bottomed) : Dynatech Laboratories. Plate washer; Microplate Washer : Molecular Devices Corp.
A compound of the present invention was adjusted to 100mM with DPBS, and pH was adjusted to 7.1-7.4.
HL-60 was cultured in RPMI 1640 medium supplemented with 10% Bovine Fetal Serum. Using a cell freezing solution consisting of 80% RPMI 1640 medium + 10% Bovine Fetal Serum + 10% DMSO, HL-60 was frozen at 1.5 × 10^7 cells per a tube according to a conventional method, and stocked at -80°C. This was used under sterile condition.
Composition of DPBS/BSA was DPBS + 1% BSA.
Composition of NWB was HBSS + 10mM-HEPES + 0.2%glucose + 1%BSA+ 1mM-CaCl2. These two solutions are prepared under sterile condition.
The citrate solution was prepared by dissolving 2.33 g of citric acid and 9.20 g of Na2HPO4·12H2O in 500 ml of desalted water.

SMILES | IC50
CC(=O)N[C@H]1[C@H]([C@H](O)[C@H](O)CO)O[C@@](O[C@H]2[C@@H](O)[C@@H](CO)O[C@@H](O[C@H]3[C@H](O[C@@H]4O[C@@H](C)[C@@H](O)[C@@H](O)[C@@H]4O)[C@@H](NC(=O)c4ccc5ccccc5c4)[C@H](OCCCc4ccccc4)O[C@@H]3CO)[C@@H]2O)(C(=O)O)C[C@@H]1O [Compound 36, 3-Phenylpropyl (5-acetamido-3,5-dideoxy-α-D-glycero-D-galacto-2-nonulopyranosylonic acid)-(2→3)-O-(β-D-galactopyranosyl)-(1→4)-O-[α-L-fucopyranosyl-(1→3)-O]-(2-deoxy-2-naphthamido-β-D-glucopyranoside)] | 110 µM
COc1cc(CCCO[C@@H]2O[C@H](CO)[C@@H](O[C@@H]3O[C@H](CO)[C@H](O)[C@H](O[C@]4(C(=O)O)C[C@H](O)[C@@H](NC(C)=O)[C@H]([C@H](O)[C@H](O)CO)O4)[C@H]3O)[C@H](O[C@@H]3O[C@@H](C)[C@@H](O)[C@@H](O)[C@@H]3O)[C@H]2NC(=O)c2ccc3ccccc3c2)cc(OC)c1OC [Compound 38, 3-(3,4,5-Trimethoxyphenyl)propyl (5-acetamido-3,5-dideoxy-α-D-glycero-D-galacto-2-nonulopyranosylonic acid)-(2→3)-O-(β-D-galactopyranosyl)-(1→4)-O-[α-L-fucopyranosyl-(1→3)-O]-(2-deoxy-2-naphthamido-β-D-glucopyra noside)] | 150 µM
CC(=O)N[C@H]1[C@H]([C@H](O)[C@H](O)CO)O[C@@](O[C@H]2[C@@H](O)[C@@H](CO)O[C@@H](O[C@H]3[C@H](O[C@@H]4O[C@@H](C)[C@@H](O)[C@@H](O)[C@@H]4O)[C@@H](NC(=O)c4ccc5ccccc5c4)[C@H](OCCCCCCCCCCCCO)O[C@@H]3CO)[C@@H]2O)(C(=O)O)C[C@@H]1O [Compound 37, 12-Hydroxydodecyl (5-acetamido-3,5-dideoxy-α-D-glycero-D-galacto-2-nonulopyranosylonic acid)-(2→3)-O-(β-D-galactopyranosyl)-(1→4)-O-[α-L-fucopyranosyl-(1→3)-O]-(2-deoxy-2-naphthamido-β-D-glucopyranoside)] | 110 µM
CC(=O)N[C@H]1[C@H]([C@H](O)[C@H](O)CO)O[C@@](O[C@H]2[C@@H](O)[C@@H](CO)O[C@@H](O[C@H]3[C@H](O[C@@H]4O[C@@H](C)[C@@H](O)[C@@H](O)[C@@H]4O)[C@@H](NC(=O)c4ccc5ccccc5c4)[C@H](OCCOCCOCCO)O[C@@H]3CO)[C@@H]2O)(C(=O)O)C[C@@H]1O [Compound 34, 2-[2-(2-Hydroxyethoxy)ethoxy]ethyl (5-acetamido-3,5-dideoxy-α-D-glycero-D-galacto-2-nonulopyra nosylonic acid)-(2→3)-O-(β-D-galactopyranosyl)-(1→4)-O-[α-L-fucopyranosyl-(1→3)-O]-(2-deoxy-2-paphthamido-β-D-glucopyranoside)] | 110 µM
CC(=O)N[C@H]1[C@H]([C@H](O)[C@H](O)CO)O[C@@](O[C@H]2[C@@H](O)[C@@H](CO)O[C@@H](O[C@H]3[C@H](O[C@@H]4O[C@@H](C)[C@@H](O)[C@@H](O)[C@@H]4O)[C@@H](NC(=O)c4ccc5ccccc5c4)[C@H](OCCOCc4ccccc4)O[C@@H]3CO)[C@@H]2O)(C(=O)O)C[C@@H]1O [Compound 33, 2-Benzyloxyethyl (5-acetamido-3,5-dideoxy-α-D-glycero-D-galacto-2-nonulopyranosylonic acid)-(2→3)-O-(β-D-galactopyranosyl)-(1→4)-O-[α-L-fucopyranosyl-(1→3)-O ]-(2-deoxy-2-naphthamido-β-D-glucopyranoside)] | 210 µM

More lines, now with the values ahead:

IC50 | SMILES
110 µM | COc1cc(CCCO[C@@H]2O[C@H](CO)[C@@H](O[C@@H]3O[C@H](CO)[C@H](O)[C@H](O[C@]4(C(=O)O)C[C@H](O)[C@@H](NC(C)=O)[C@H]([C@H](O)[C@H](O)CO)O4)[C@H]3O)[C@H](O[C@@H]3O[C@@H](C)[C@@H](O)[C@@H](O)[C@@H]3O)[C@H]2NC(=O)c2ccccc2)cc(OC)c1OC [Compound 41, 3-(3,4,5-Trimethoxyphenyl)propyl (5-acetamido-3,5-dideoxy-α-D-glycero-D-galacto-2-nonulopyranosylonic acid)-(2→3)-O-(β-D-galactopyranosyl)-(1→4)-O-[α-L-fucopyranosyl-(1→3)-O]-(2-deoxy-2-benzamido-β-D-glucopyranoside)]
150 µM | CCCCCCCCCOc1cc(CCCO[C@@H]2O[C@H](CO)[C@@H](O[C@@H]3O[C@H](CO)[C@H](O)[C@H](O[C@]4(C(=O)O)C[C@H](O)[C@@H](NC(C)=O)[C@H]([C@H](O)[C@H](O)CO)O4)[C@H]3O)[C@H](O[C@@H]3O[C@@H](C)[C@@H](O)[C@@H](O)[C@@H]3O)[C@H]2NC(=O)c2ccc3ccccc3c2)cc(OC)c1OC [Compound 39, 3-(4,5-Dimethoxy-3-nonyloxyphenyl)propyl (5-acetamido-3,5-dideoxy-α-D-glycero-D-galacto-2-nonulopyra nosylonic acid)-(2→3)-O-(β-D-galactopyranosyl)-(1→4) -O-[α-L-fucopyranosyl-(1→3)-O]-(2-deoxy-2-naphthamido-β-D-g lucopyranoside)]
70 µM | CCCCCCCCCOc1c(OC)cc(CCCO[C@@H]2O[C@H](CO)[C@@H](O[C@@H]3O[C@H](CO)[C@H](O)[C@H](O[C@]4(C(=O)O)C[C@H](O)[C@@H](NC(C)=O)[C@H]([C@H](O)[C@H](O)CO)O4)[C@H]3O)[C@H](O[C@@H]3O[C@@H](C)[C@@H](O)[C@@H](O)[C@@H]3O)[C@H]2NC(=O)c2ccc3ccccc3c2)cc1OC [Compound 40, 3-(3,5-Dimethoxy-4-nonyloxyphenyl)propyl (5-acetamido-3,5-dideoxy-α-D-glycero-D-galacto-2-nonulopyra nosylonic acid)-(2→3)-O-(β-D-galactopyranosyl)-(1→4)-O-[α-L-fucopyranosyl-(1→3)-O]-(2-deoxy-2-naphthamido-β-D-glucopyranoside)]
